{"source": "paper PMC9549944", "about": "“In vitro and in silico assessment of new beta amino ketones with antiplasmodial activity” (Revista da Sociedade Brasileira de Medicina Tropical, 2022)", "tested_on": "P. falciparum strain W2 (chloroquine-resistant)", "test": "In vitro antiplasmodial activity, SYBR Green-based assay", "type": "cell-based", "conditions": "for SI (selectivity index): ratio LD50 (WI-26VA4) / IC50 (P. falciparum W2)", "procedure": "Ring-stage parasites were equally distributed in 96-well microculture plates. Serial dilutions of the compounds were performed ranging from 0.01 to 100 μg/mL. […] A fluorometer (Fluoroskan Ascent, Thermo Laboratories) with excitation at 485 nm and emission at […] was used to determine the viability of the parasites. All experiments were performed in triplicates.\nSelectivity index (SI) is the ratio between the values of LD50 and IC50 […] of each compound tested.\nIC50 and LD50 were determined using the equation of the curve obtained by plotting parasitemia reduction (%) or cellular death (%) vs. the concentration of the compound (log scale) using the GraphPad Prism software (version 5.0 for Windows, San Diego, California, USA). Due to the non-normality of the data distribution, the comparison of IC50 and LD50 between morpholine and piperidine was analyzed using the nonparametric Mann-Whitney U test. Statistical significance was defined at 5% (p<0.05).", "key": {"[1]": {"conditions": "Plasmodium falciparum, W2, read-out: IC50 ± SD (drug concentration that reduced parasite viability in 50%), P. falciparum W2 chloroquine-resistant, SYBR, mean and SD of triplicate experiments"}, "[2]": {"conditions": "read-out: IC50 ± SD (drug concentration that reduced parasite viability in 50%), P. falciparum W2 chloroquine-resistant, SYBR, mean and SD of triplicate experiments"}}, "note": "Like-named read-outs stand apart in the source and are kept apart here.", "data": [{"smiles": "CCN(CC)CCCC(C)Nc1ccnc2cc(Cl)ccc12", "note": "(stereo not drawn) [Chloroquine (CQ), Chloroquine, reference compound]", "values": [{"measurement": "IC50", "setting": "Plasmodium falciparum, W2, read-out: IC50 ± SD (drug concentration that reduced parasite viability in 50%)", "result": "920 ± 10", "unit": "nM"}]}, {"smiles": "O=C(CCN1CCOCC1)c1ccccc1", "note": "[Compound 1, 3-(morpholin-4-yl)-1-phenylpropan-1-one]", "values": [{"measurement": "IC50", "setting": "[1]", "result": "< 980", "unit": "nM"}, {"measurement": "IC50", "setting": "[2]", "result": "980 ± 10", "unit": "nM"}]}, {"smiles": "O=C(CCN1CCCCC1)c1ccccc1", "note": "[Compound 2, 1-phenyl-3-(piperidin-1-yl)propan-1-one]", "values": [{"measurement": "IC50", "setting": "[1]", "result": "< 3590", "unit": "nM"}, {"measurement": "SI (selectivity index)", "result": 9.46}, {"measurement": "IC50", "setting": "[2]", "result": "3590 ± 80", "unit": "nM"}]}, {"smiles": "CC(CN1CCOCC1)C(=O)c1ccccc1", "note": "(stereo not drawn) [Compound 3, 2-methyl-3-(morpholin-4-yl)-1-phenylpropan-1-one]", "values": [{"measurement": "IC50", "setting": "[1]", "result": "32530 ± 20", "unit": "nM"}, {"measurement": "SI (selectivity index)", "result": "> 3.07"}]}, {"smiles": "CC(CN1CCCCC1)C(=O)c1ccccc1", "note": "(stereo not drawn) [Compound 4, 2-methyl-1-phenyl-3-(piperidein-1-yl)propan-1-one]", "values": [{"measurement": "IC50", "setting": "[1]", "result": "> 1000", "unit": "nM"}, {"measurement": "IC50", "setting": "[2]", "result": "780 ± 90", "unit": "nM"}]}, {"smiles": "CCCCCCC(CN1CCCCC1)C(C)=O", "note": "(stereo not drawn) [Compound 8, 3[(piperdin-1-yl)methyl]nonan-2-one]", "values": [{"measurement": "IC50", "setting": "[1]", "result": "48000 ± 18500", "unit": "nM"}, {"measurement": "SI (selectivity index)", "result": 0.81}]}]}
